Measured values as given in patent US8481531B2, “Bicyclic heterocyclyl derivatives as FGFR kinase inhibitors for therapeutic use” (Astex Therapeutics Ltd, priority 2009, dated 2013).

Columns and labels:
[1] = test system: parental wild-type Ba/F3 cells; test: Ba/F3 (WT) cell proliferation assay (Alamar Blue); format: cell-based; conditions: BaF3, 72 hours, read-out: BaF3 WT prolif; for inhibition at 10 µM: Mus musculus
Method in brief: (§1)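 Ba/F3-TEL-FGFR3 cells (5×10^3/well, G418) and parental Ba/F3 (2.5×10^3/well, 2 ng/ml mouse IL-3) in RPMI/10% FBS, plated overnight, then compound for 72 h at 0.1% DMSO final. Alamar Blue 4-6 h, fluorescence 535/590 nm; IC50 where inhibition high.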

VEGFR2 = molecular target: T1, VEGFR2 (Homo sapiens, UniProt P35968); test: VEGFR2 in vitro kinase inhibitory activity assay (TRF); format: biochemical; conditions: read-out: VEGFR2 IC50(μM) or % I; for IC50: 0.5 μM ATP, 1 hour
T1 construct: purchased Upstate

Ba/F3-TEL-FGFR3 cells = molecular target: T2, Ba/F3-TEL-FGFR3 cells (Homo sapiens, UniProt P22607); test: Ba/F3-TEL-FGFR3 cell proliferation assay (Alamar Blue); format: cell-based; conditions: 72 hours; read-out: BaF3-TEL-FGFR3 prolif
T2 construct: fused on or other part: P41212 (Transcription factor ETV6)
Method in brief: as §1

FGFR3 = molecular target: T3, FGFR3 (Homo sapiens, UniProt P22607); test: FGFR3 in vitro kinase inhibitory activity assay (TRF); format: biochemical; conditions: 8 μM ATP, 3 hours; read-out: FGFR3 IC50(μM) or % I
T3 construct: purchased Upstate
T3 sequence (P22607 23-806): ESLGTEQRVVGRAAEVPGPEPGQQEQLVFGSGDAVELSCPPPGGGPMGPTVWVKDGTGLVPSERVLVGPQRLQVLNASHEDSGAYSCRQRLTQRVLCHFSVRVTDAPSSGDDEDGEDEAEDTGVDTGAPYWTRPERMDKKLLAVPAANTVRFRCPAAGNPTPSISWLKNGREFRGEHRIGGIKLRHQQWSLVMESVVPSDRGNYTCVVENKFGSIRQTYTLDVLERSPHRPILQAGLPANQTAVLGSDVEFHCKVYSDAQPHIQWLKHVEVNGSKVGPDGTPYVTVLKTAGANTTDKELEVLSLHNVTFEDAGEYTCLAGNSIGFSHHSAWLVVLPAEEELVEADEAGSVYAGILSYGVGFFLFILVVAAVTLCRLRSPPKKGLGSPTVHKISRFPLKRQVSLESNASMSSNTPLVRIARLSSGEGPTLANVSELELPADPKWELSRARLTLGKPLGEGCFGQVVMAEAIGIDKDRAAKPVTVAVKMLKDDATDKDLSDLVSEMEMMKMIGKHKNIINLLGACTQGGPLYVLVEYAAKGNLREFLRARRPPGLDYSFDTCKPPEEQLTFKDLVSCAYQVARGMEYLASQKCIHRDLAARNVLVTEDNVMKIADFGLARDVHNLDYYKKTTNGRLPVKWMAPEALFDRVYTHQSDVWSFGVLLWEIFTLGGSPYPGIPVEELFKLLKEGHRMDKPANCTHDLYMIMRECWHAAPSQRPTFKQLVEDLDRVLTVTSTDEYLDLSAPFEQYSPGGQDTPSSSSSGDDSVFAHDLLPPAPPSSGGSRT

T2 sequence (P22607 whole entry, change not shown, the tested form may be a part): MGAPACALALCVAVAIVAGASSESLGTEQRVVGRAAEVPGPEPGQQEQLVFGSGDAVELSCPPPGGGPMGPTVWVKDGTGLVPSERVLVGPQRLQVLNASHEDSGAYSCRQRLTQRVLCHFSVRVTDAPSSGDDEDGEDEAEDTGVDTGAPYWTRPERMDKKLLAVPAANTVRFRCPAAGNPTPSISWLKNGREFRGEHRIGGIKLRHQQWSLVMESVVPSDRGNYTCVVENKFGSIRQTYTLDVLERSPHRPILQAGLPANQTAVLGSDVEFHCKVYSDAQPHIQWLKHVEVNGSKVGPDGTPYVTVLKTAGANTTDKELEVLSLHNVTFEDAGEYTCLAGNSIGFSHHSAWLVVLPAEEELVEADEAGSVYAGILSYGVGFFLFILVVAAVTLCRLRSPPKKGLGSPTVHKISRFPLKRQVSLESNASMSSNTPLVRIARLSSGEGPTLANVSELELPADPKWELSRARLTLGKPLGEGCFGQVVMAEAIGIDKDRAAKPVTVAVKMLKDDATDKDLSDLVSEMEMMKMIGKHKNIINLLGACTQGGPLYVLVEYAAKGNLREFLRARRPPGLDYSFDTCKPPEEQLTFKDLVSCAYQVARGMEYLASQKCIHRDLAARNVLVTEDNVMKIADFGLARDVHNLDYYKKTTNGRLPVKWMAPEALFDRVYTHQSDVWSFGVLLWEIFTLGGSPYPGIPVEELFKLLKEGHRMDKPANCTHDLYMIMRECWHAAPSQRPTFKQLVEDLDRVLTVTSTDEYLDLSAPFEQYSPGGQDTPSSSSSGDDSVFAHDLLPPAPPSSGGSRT
T1 sequence (P35968 20-1356): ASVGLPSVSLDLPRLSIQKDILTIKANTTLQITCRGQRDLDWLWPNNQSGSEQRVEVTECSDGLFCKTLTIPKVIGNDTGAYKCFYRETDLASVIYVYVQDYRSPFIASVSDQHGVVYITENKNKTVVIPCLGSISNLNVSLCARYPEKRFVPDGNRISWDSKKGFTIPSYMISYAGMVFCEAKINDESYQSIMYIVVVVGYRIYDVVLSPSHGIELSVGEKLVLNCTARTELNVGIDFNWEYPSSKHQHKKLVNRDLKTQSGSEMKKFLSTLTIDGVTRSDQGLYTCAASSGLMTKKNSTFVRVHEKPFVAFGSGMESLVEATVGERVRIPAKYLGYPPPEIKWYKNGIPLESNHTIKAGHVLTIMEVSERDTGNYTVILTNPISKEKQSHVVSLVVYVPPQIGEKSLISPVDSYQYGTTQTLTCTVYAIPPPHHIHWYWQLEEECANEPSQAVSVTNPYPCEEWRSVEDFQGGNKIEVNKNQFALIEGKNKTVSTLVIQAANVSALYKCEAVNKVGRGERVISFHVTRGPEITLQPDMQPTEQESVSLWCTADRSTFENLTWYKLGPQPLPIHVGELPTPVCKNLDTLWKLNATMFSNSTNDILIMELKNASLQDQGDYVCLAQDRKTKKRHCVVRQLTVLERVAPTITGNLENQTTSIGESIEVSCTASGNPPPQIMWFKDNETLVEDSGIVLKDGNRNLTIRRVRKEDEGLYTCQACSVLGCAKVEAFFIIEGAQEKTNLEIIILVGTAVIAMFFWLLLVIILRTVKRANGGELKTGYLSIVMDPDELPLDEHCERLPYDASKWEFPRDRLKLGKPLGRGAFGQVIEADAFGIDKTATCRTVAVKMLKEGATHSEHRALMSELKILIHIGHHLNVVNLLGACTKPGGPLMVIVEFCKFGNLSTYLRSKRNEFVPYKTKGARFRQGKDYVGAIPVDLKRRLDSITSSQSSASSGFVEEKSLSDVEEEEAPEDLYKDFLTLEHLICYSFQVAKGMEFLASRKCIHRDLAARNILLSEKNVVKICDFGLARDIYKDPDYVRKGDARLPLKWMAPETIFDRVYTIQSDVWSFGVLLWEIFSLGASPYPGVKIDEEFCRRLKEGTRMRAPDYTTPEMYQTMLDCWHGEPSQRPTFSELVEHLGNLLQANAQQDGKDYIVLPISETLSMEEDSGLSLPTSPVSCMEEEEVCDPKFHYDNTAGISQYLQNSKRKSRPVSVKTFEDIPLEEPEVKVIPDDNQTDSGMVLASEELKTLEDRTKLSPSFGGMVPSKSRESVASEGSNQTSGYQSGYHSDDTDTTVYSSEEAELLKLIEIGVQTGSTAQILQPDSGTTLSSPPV

Row | SMILES | inhibition at 10 µM [1] [%] | IC50 (VEGFR2) [µM] | GI50 (Ba/F3-TEL-FGFR3 cells) [nM] | IC50 (FGFR3) [µM] | IC50 ([1]; with mouse IL-3) [nM] | inhibition at 1 µM (VEGFR2; 1 h, % I at 1 μM) [%] | melting point [°C]
1 | CN(CCON=Cc1ccn2c(-c3cccc(NC(=O)NCC(F)(F)F)c3)cnc2c1)CCS(C)(=O)=O [Compound 1-42, 1-{3-[7-({2-[(2-Methanesulfonyl-ethyl)-methyl-amino]-ethoxyimino}-methyl)-imidazo[1,2-a]pyridin-3-yl]-phenyl}-3-(2,2,2-trifluoro-ethyl)-urea] | 10 | 0.54 | 1300 | 0.017 |  |  | 
2 | O=C(NCC(F)(F)F)Nc1cccc(-c2cnc3cc(C=NOCCCN4CCC(O)C4)ccn23)c1 (stereo not drawn) [Compound 1-38, 1-[3-(7-{[3-(3-Hydroxy-pyrrolidin-1-yl)-propoxyimino]-methyl}-imidazo[1,2-a]pyridin-3-yl)-phenyl]-3-(2,2,2-trifluoro-ethyl)-urea] | 21 | 0.39 | 1800 | 0.026 |  |  | 
3 | O=C(NCC(F)(F)F)Nc1cccc(-c2cnc3cc(C=NOCC4CC4)ccn23)c1 [Compound 1-11, 1-{3-[7-(Cyclopropylmethoxyimino-methyl)-imidazo[1,2-a]pyridin-3-yl]-phenyl}-3-(2,2,2-trifluoro-ethyl)-urea] |  |  | 600 | 0.027 | 880 | 46 | 
4 | CC(C)Oc1cc(NC(=O)NCC(F)(F)F)cc(-c2cnc3cc(/C(=N/O)C4CC4)ccn23)c1 [Compound 1-66, 1-[3-(7-{Cyclopropyl-[(E)-hydroxyimino]-methyl}-imidazo[1,2-a]pyridin-3-yl)-5-isopropoxy-phenyl]-3-(2,2,2-trifluoro-ethyl)-urea] |  | 1.4 |  |  |  |  | 222 to 223
5 | Nc1nc(CON=Cc2ccn3c(-c4cccc(NC(=O)NCC(F)(F)F)c4)cnc3c2)cs1 [Compound 1-16, 1-(3-{7-[(2-Amino-thiazol-4-ylmethoxyimino)-methyl]-imidazo[1,2-a]pyridin-3-yl}-phenyl)-3-(2,2,2-trifluoro-ethyl)-urea] | 19 | 0.61 | 1300 | 0.018 |  |  | 
